“Also recorded” adds a separate entry of the source.
Columns and labels:
[1] = system: human melanocytes; type: cell-based
[2] = system: MM4 cells; test: MM4 cell yields after UV or sham irradiation with growth factor supplementation; type: cell-based, human; details: UV 10 mJ/cm^2, 50 ng/ml NGF, 4 experiments
Method: Melanocytes or MM4 cells were plated in 60 mm diameter tissue culture dishes. Melanocytes were maintained in Medium 199 supplemented with 7% fetal bovine serum (FBS), 10 ng/ml epidermal growth factor (Collaborative Research), […] (Sigma), […] (Collaborative Research), […] (Sigma), 1.4×10^−6 M hydrocortisone (Calbiochem), […] (Calbiochem), and 10 ng/ml basic fibroblast growth factor (Collaborative Research) (basal melanocyte medium). MM4 cells were maintained in 55.3% DME, 27.6% L15, 15% FBS, 1% nonessential amino acids (GIBCO BRL), 2 mM glutamine and 10 µg/ml insulin. After 24 hours, medium was replaced by phosphate buffered saline (PBS) and cells were irradiated using a 1 KW xenon arc solar simulator (XMN 1000-21, Optical Radiation Corp., Azuza, Calif.) with 5, 10, or 25 mJ/cm^2 UV through the petri dish plastic cover. Irradiance was adjusted to 4×10^−5 UV cm^−2 and metered with a research radiometer (model IL1700A, International Light, Newburyport, Mass.) fitted with a UVB probe at 285 Å 5 nm. After UV irradiation, cells were maintained in their respective media without FBS for 2 days (MM4 cells) or 3 days (melanocytes) and processed as indicated. Sham irradiated control cultures were handled identically but laced under a dark cloth adjacent to the UV beam.
FIGS. 2B and 2D show MM4 cell yields 24-72 hours after a single UV irradiation of 10 mJ/cm^2. FIGS. 2C and 2e show MM4 cell yields 24-72 hours after sham irradiation. Cells in FIGS. 2B and 2C were supplemented with 50 ng/ml NGF or diluent alone. Cells in FIGS. 2D and 2E were supplemented with 50 ng/ml bFGF or diluent alone.
Melanocytes or MM4 cells were plated as described in Example 1. After irradiation, melanocytes were maintained in basal melanocyte medium lacking FBS and hydrocortisone, with 50 ng/ml NGF or diluent alone (melanocyte medium). MM4 cells were maintained in DME supplemented with 50 ng/ml NGF or diluent alone.

[3] = system: Bcl-2 protein; test: Bcl-2 protein expression in MM4 cells (FACScan, Western blot); type: cell-based, human
Method: To determine if NGF induces Bcl-2 protein, MM4 cells were UV-irradiated with 10 mJ/cm^2 or sham irradiated and then supplemented with NGF or diluent alone as explained in Example 3. Twenty-four hours after irradiation, cells were washed with PBS and then detached with 0.5 mM EDTA and washed again with PBS. 10^6 cells were incubated with […] mouse anti human Bcl-2 monoclonal antibody (DAKO Co., Carpinteria, Calif.) or with the same concentration of normal mouse IgG (Cappel, Organon Teknika Co., West Chester, Pa., USA) in PBS with 0.3% Saponin (Sigma, St, Louis, Mo.) for 2 hours at 4%C. After three washes with PBS, cells were incubated with fluorescein-conjugated goat anti-mouse IgG (1 hour at 4%C) (Cappel), washed four times in PBS, fixed with 0.1% fresh formaldehyde, and washed three times in PBS. Fluorescence intensity was determined using FACScan flow cytometer (Becton-Dickinson, San Jose, Calif.).
(−) mouse IgG control; (_) diluent alone; ( . . . ) 50 ng/ml NGF.
MM4 cells were extracted in RIPA buffer (50 mM Tris-HCl [pH 8.0], 0.15 M NaCl, 0.5% sodium deoxycholate, 1% Triton X-100) in the presence of […] aprotinin and 75 µg/ml phenylmethylsulfonyl fluoride, sonicated for 1-3 seconds and centrifuged. […] of protein per lane were separated on 12% SDS/PAGE and blotted onto nitrocellulose paper (overnight, 40V). […]

[4] = system: Bcl-2 protein; test: Keratinocyte BCL-2 level after NGF deprivation (Western blot); type: cell-based, human; details: medium lacking BPE, 50 ng/ml NGF versus diluent, 24 and 48 hours
Method: To determine if NGF affects BCL-2 protein level in keratinocytes, cells were maintained in Keratinocyte basal medium until 60-80% confluent. Then cells were provided medium lacking BPE to eliminate exogenous NGF. Duplicate cultures were provided 50 ng/ml NGF or diluent alone.
Total keratinocyte proteins were extracted, and BCL-2 levels were determined by Western blot analysis as in Example 6.

Substance: NGF: nerve growth factor, neurotrophin ligand of p75 NGF-R and trk
- Cell yields of melanocytes versus diluent alone ([1]; UV 10 mJ/cm^2, 50 ng/ml NGF, 7 experiments): significantly higher
- Cell yields, NGF-treated versus control cultures ([1]; determined daily for 19 days): up to 6.5 fold
- Thymidine labeling index, NGF-treated versus control cultures ([1]; determined daily for 19 days): ≤ 10 fold
- Appearance of cultures after UV irradiation ([1]; melanocytes and MM4 cells, 50 ng/ml NGF): appeared healthy
- Cell yields of MM4 cells versus diluent alone [2]: significantly higher
- Bcl-2 level ([3]; UV 10 mJ/cm^2 followed by 50 ng/ml NGF, 24 hours): substantially higher; also recorded: Bcl-2 induction
- Bcl-2 level ([3]; sham irradiated, 50 ng/ml NGF): only low levels of Bcl-2 protein
- BCL-2 level in keratinocytes [4]: contributes, at least in part, to BCL-2 maintenance
